Measurements from patent US6620811B2, “Isonicotin- and nicotinamide derivatives of benzothiazoles” (Hoffmann-La Roche Inc., priority 2001, dated 2003).

Target: T1, human adenosine A2A receptor (Homo sapiens, UniProt P29274)
T1 construct: expressed in transfected cells; host or cells: CHO cells, semliki forest virus expression system; membrane preparation
Assay: Human adenosine A2A receptor [3H]-SCH-583261 binding assay (SPA, CHO cell membranes)
Settings: [3H]-SCH-583261 1 nM, membranes of CHO cells expressing the recombinant receptor, Ki by Cheng-Prussoff equation; for Ki: read-out: hA2 (pKi) (converted)
Description: Human Adenosine A2A Receptor
The human adenosine A2A receptor was recombinantly expressed in chinese hamster ovary (CHO) cells using the semliki forest virus expression system. Cells were harvested, washed twice by centrifugation, homogenised and again washed by centrifugation. The final washed membrane pellet was suspended in a Tris (50 mM) buffer containing 120 mM NaCl, 5 mM KCl, 2 mM CaCl2 and 10 mM MgCl2 (pH 7.4) (buffer A). The [^3H]-SCH-583261 (Dionisotti et al., 1997, Br J Pharmacol 121, 353; 1 nM) binding assay was carried out in 96-well plates in the presence of 2.5 μg of membrane protein, 0.5 mg of Ysi-poly-1-lysine SPA beads and 0.1 U adenosine deaminiase in a final volume of 200 μl of buffer A. Non-specific binding was defined using xainthine amine congener (XAC; 2 μM). Compounds were tested at 10 concentrations from 10 μM-0.3 nM. All assays were conducted in duplicate and repeated at least two times. Assay plates were incubated for 1 hour at room temperature before centrifugation and then bound ligand determined using a Packard Topcount scintillation counter. IC50 values were calculated using a non-linear curve fitting program and Ki values calculated using the Cheng-Prussoff equation.

T1 sequence (P29274 whole entry): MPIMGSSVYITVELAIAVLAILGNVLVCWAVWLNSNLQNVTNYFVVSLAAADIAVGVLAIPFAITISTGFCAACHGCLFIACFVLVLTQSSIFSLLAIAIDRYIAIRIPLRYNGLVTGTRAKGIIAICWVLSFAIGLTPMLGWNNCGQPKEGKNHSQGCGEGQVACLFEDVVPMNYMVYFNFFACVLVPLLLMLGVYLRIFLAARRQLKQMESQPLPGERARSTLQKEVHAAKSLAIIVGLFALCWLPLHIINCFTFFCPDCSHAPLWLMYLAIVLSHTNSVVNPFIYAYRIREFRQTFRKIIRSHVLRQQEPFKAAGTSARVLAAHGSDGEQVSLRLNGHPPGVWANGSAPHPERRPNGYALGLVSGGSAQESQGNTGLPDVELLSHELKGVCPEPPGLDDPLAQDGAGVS

SMILES | Ki | hA2 (pKi)
COc1ccc(N2CCOCC2)c2sc(NC(=O)c3ccnc(OCc4ccccc4)c3)nc12 [Example 4, 2-Benzyloxy-N-(4-methoxy-7-morpholin-4-yl-benzothiazol-2-yl)-isonicotinamide] | 2.63 nM | –
COc1ccc(N2CCOCC2)c2sc(NC(=O)c3ccnc(SC)c3)nc12 [Example 80, N-(4-Methoxy-7-morpholin-4-yl-benzothiazol-2-yl)-2-methylsulfanyl-isonicotinamide] | 2.09 nM | –
COc1ccc(N2CCOCC2)c2sc(NC(=O)c3ccnc(NCCc4ccccn4)c3)nc12 [Example 8, N-(4-Methoxy-7-morpholin-4-yl-benzothiazol-2-yl)-2-(2-pyridin-2-yl-ethylamino)-isonicotinamide] | 1.78 nM | –
CCCN(C)c1cc(C(=O)Nc2nc3c(OC)ccc(N4CCOCC4)c3s2)ccn1 [Example 94, N-(4-Methoxy-7-morpholin-4-yl-benzothiazol-2-yl)-2-(methyl-propyl-amino)-isonicotinamide] | 1.2 nM | –
COc1ccc(N2CCOCC2)c2sc(NC(=O)c3ccnc(NCc4ccccn4)c3)nc12 [Example 13, N-(4-Methoxy-7-morpholin-4-yl-benzothiazol-2-yl)-2-[(pyridin-2-ylmethyl)-amino]-isonicotinamide] | 1.55 nM | –
COc1ccc(N2CCOCC2)c2sc(NC(=O)c3ccnc(NCc4ccccc4)c3)nc12 [Example 83, 2-Benzylamino-N-(4-methoxy-7-morpholin-4-yl-benzothiazol-2-yl)-isonicotinamide] | 1.74 nM | –
COc1ccc(N2CCOCC2)c2sc(NC(=O)c3ccnc(OCCNC(C)=O)c3)nc12 [Example 92, 2-(2-Acetylamino-ethoxy)-N-(4-methoxy-7-morpholin-4-yl-benzothiazol-2-yl)-isonicotinamide] | 1.58 nM | –
COc1ccc(N2CCOCC2)c2sc(NC(=O)c3ccnc(NCCN(C)C)c3)nc12 [Example 88, 2-(2-Dimethylamino-ethylamino)-N-(4-methoxy-7-morpholin-4-yl-benzothiazol-2-yl)-isonicotinamide] | 0.457 nM | –
COc1ccc(N2CCOCC2)c2sc(NC(=O)c3ccc(OC(C)C)nc3)nc12 [Example 44, 6-Isopropoxy-N-(4-methoxy-7-morpholin-4-yl-benzothiazol-2-yl)-nicotinamide] | 3.02 nM | –
COc1ccc(N2CCOCC2)c2sc(NC(=O)c3ccnc(N(C)CCN(C)C)c3)nc12 [Example 99, 2-[(2-Dimethylamino-ethyl)-methyl-amino]-N-(4-methoxy-7-morpholin-4-yl-benzothiazol-2-yl)-isonicotinamide] | 0.603 nM | –
CCSc1cc(C(=O)Nc2nc3c(OC)ccc(N4CCOCC4)c3s2)ccn1 [Example 81, 2-Ethylsulfanyl-N-(4-methoxy-7-morpholin-4-yl-benzothiazol-2-yl)-isonicotinamide] | 2.4 nM | –
COc1ccc(N2CCOCC2)c2sc(NC(=O)c3ccnc(OC4CCCC4)c3)nc12 [Example 85, 2-Cyclopentyloxy-N-(4-methoxy-7-morpholin-4-yl-benzothiazol-2-yl)-isonicotinamide] | 2.95 nM | –
COc1ccc(N2CCOCC2)c2sc(NC(=O)c3ccnc(NC4CCC4)c3)nc12 [Example 90, 2-Cyclobutylamino-N-(4-methoxy-7-morpholin-4-yl-benzothiazol-2-yl)-isonicotinamide] | 1.74 nM | –
COc1ccc(C(=O)Nc2nc3c(OC)ccc(N4CCOCC4)c3s2)cn1 [Example 35, 6-Methoxy-N-(4-methoxy-7-morpholin-4-yl-benzothiazol-2-yl)-nicotinamide] | 2 nM | –
COc1ccc(N2CCOCC2)c2sc(NC(=O)c3ccc(NCc4ccccn4)nc3)nc12 [Example 40, N-(4-Methoxy-7-morpholin-4-yl-benzothiazol-2-yl)-6-[(pyridin-2-ylmethyl)-amino]-nicotinamide] | 1.02 nM | –
COc1ccc(N2CCOCC2)c2sc(NC(=O)c3ccnc(N4CCN(C)CC4)c3)nc12 [Example 10, N-(4-Methoxy-7-morpholin-4-yl-benzothiazol-2-yl)-2-(4-methyl-piperazin-1-yl)-isonicotinamide] | 0.724 nM | –
COc1ccc(N2CCOCC2)c2sc(NC(=O)c3ccnc(N4C[C@@H]5C[C@H]4CO5)c3)nc12 [Example 31, N-(4-Methoxy-7-morpholin-4-yl-benzothiazol-2-yl)-2-{(1S,4S)-2-oxa-5-aza-bicyclo[2.2.1]hept-5-yl}-isonicotinamide] | 1 nM | –
COc1ccc(N2CCOCC2)c2sc(NC(=O)c3ccnc(CN4CCOCC4)c3)nc12 [Example 56, N-(4-Methoxy-7-morpholin-4-yl-benzothiazol-2-yl)-2-morpholin-4-ylmethyl-isonicotinamide] | 1.58 nM | –

SMILES | Ki | hA2 (pKi)
COc1ccc(N2CCOCC2)c2sc(NC(=O)c3ccnc(OCCN(C)C)c3)nc12 [Example 86, 2-(2-Dimethylamino-ethoxy)-N-(4-methoxy-7-morpholin-4-yl-benzothiazol-2-yl)-isonicotinamide] | 0.501 nM | –
COc1ccc(N2CCCCC2)c2sc(NC(=O)c3ccnc(CN4CCOCC4)c3)nc12 [Example 71, N-(4-Methoxy-7-piperidin-1-yl-benzothiazol-2-yl)-2-morpholin-4-yl-methyl-isonicotinamide] | – | 8.7
COc1ccc(N2CCOCC2)c2sc(NC(=O)c3ccnc(OCCN4CCCC4=O)c3)nc12 [Example 17, N-(4-Methoxy-7-morpholin-4-yl-benzothiazol-2-yl)-2-[2-(2-oxo-pyrrolidin-1-yl)-ethoxy]-isonicotinamide] | 2.34 nM | –
COc1ccc(N2CCCCC2)c2sc(NC(=O)c3ccnc(CN4CCCC4)c3)nc12 [Example 70, N-(4-Methoxy-7-piperidin-1-yl-benzothiazol-2-yl)-2-pyrrolidin-1-yl-methyl-isonicotinamide] | – | 8.9
COc1cc(C(=O)Nc2nc3c(OC)ccc(N4CCOCC4)c3s2)ccn1 [Example 5, 2-Methoxy-N-(4-methoxy-7-morpholin-4-yl-benzothiazol-2-yl)-isonicotinamide] | 2.63 nM | –
COc1ccc(N2CCOCC2)c2sc(NC(=O)c3ccnc(NCCNC(C)=O)c3)nc12 [Example 15, 2-(2-Acetylamino-ethylamino)-N-(4-methoxy-7-morpholin-4-yl-benzothiazol-2-yl)-isonicotinamide] | 1.91 nM | –
COc1ccc(N2CCOCC2)c2sc(NC(=O)c3ccnc(OCCN4CCOCC4)c3)nc12 [Example 87, N-(4-Methoxy-7-morpholin-4-yl-benzothiazol-2-yl)-2-(2-morpholin-4-yl-ethoxy)-isonicotinamide] | 0.851 nM | –
COc1ccc(N2CCOCC2)c2sc(NC(=O)c3ccnc(N4CCC4)c3)nc12 [Example 26, 2-Azetidin-1-yl-N-(4-methoxy-7-morpholin-4-yl-benzothiazol-2-yl)-isonicotinamide] | 0.955 nM | –
CCCNc1cc(C(=O)Nc2nc3c(OC)ccc(N4CCOCC4)c3s2)ccn1 [Example 93, N-(4-Methoxy-7-morpholin-4-yl-benzothiazol-2-yl)-2-propylamino-isonicotinamide] | 1.07 nM | –
COc1ccc(N2CCOCC2)c2sc(NC(=O)c3ccnc(NCCN4CCOCC4)c3)nc12 [Example 18, N-(4-Methoxy-7-morpholin-4-yl-benzothiazol-2-yl)-2-(2-morpholin-4-yl-ethylamino)-isonicotinamide] | 0.617 nM | –
COc1ccc(N2CCOCC2)c2sc(NC(=O)c3ccnc(OC(C)C)c3)nc12 [Example 77, 2-Isopropoxy-N-(4-methoxy-7-morpholin-4-yl-benzothiazol-2-yl)-isonicotinamide] | 2.88 nM | –
CCOC1CN(c2cc(C(=O)Nc3nc4c(OC)ccc(N5CCOCC5)c4s3)ccn2)C1 [Example 76, 2-(3-Ethoxy-azetidin-1-yl)-N-(4-methoxy-7-morpholin-4-yl-benzothiazol-2-yl)-isonicotinamide] | 1.74 nM | –
COc1ccc(N2CCOCC2)c2sc(NC(=O)c3ccnc(CNCCCC(=O)OC(C)(C)C)c3)nc12 [Example 62, 4-{[4-(4-Methoxy-7-morpholin-4-yl-benzothiazol-2-yl-carbamoyl)-pyridin-2-yl-methyl]-amino}-butyric Acid tert-Butyl Ester] | 1.58 nM | –
COc1ccc(N2CCOCC2)c2sc(NC(=O)c3ccnc(N(C)C4CCCCC4)c3)nc12 [Example 95, 2-(Cyclohexyl-methyl-amino)-N-(4-methoxy-7-morpholin-4-yl-benzothiazol-2-yl)-isonicotinamide] | 1.91 nM | –
COc1ccc(N2CCOCC2)c2sc(NC(=O)c3ccnc(N4CCS(=O)(=O)CC4)c3)nc12 [Example 73, 2-(1,1-Dioxo-1l6-thiomorpholin-4-yl)-N-(4-methoxy-7-morpholin-4-yl-benzothiazol-2-yl)-isonicotinamide] | 1.82 nM | –
COCCNCc1cc(C(=O)Nc2nc3c(OC)ccc(N4CCOCC4)c3s2)ccn1 [Example 47, 2-[(2-Methoxy-ethylamino)-methyl]-N-(4-methoxy-7-morpholin-4-yl-benzothiazol-2-yl)-isonicotinamide] | 2.51 nM | –
COc1ccc(N2CCOCC2)c2sc(NC(=O)c3ccnc(OCc4ccccn4)c3)nc12 [Example 6, N-(4-Methoxy-7-morpholin-4-yl-benzothiazol-2-yl)-2-(pyridin-2-ylmethoxy)-isonicotinamide] | 1.15 nM | –
